The values that follow come from patent US6787653B2, “Preparation process of biphenylcarboxylic acid amide derivatives” (Kowa Co., Ltd., priority 2002, dated 2004).

Where a name gives a salt, the structure may show the parent alone.

One data set deals with IgE antibody production by B cells. Put plainly: Evaluation of inhibitory activity against IgE antibody production. Format: cell-based. To be noted: B-cell; mouse (Balb/C) spleen B cells cultured with LPS and mouse IL-4; IgE in culture supernatant by ELISA. Here is the method:
After the spleen was enucleated from a mouse (Balb/C, male, aged 8 weeks) and shredded in 0.3 wt. % BSA/HBSS, single cells were obtained using a 200-mesh screen. The single cells were then hemolyzed by a 0.75 wt. % ammonium chloride·17 mmol/L Tris solution and a splenocyte suspension (1×10^7/mL) was prepared using RPMI 1640 medium/25 mmol/L HEPES/0.3 wt. % BSA. After the suspension was reacted with a rat anti-mouse Thy-1,2 monoclonal antibody (product of Cedarlane Co.) at 4° C. for 1 hour, the reaction mixture was centrifuged and the sediment cells were suspended again (1×10^7/mL, RPMI/HEPES/BSA). After the suspension-was reacted with a low-cytotoxic rabbit complement (product of Cedarlane Co.) at 37° C. for 1 hour, killed cells were removed by specific gravity centrifugation using lympholyte M (product of Cedarlane Co.) to obtain a B cell fraction as viable cells.
After culturing B cells ([…]) for one day together with LPS (E. coli 026:B6, product of DIFCO Co.) on a 96-well plate, mouse IL-4 (product of Genzyme Co.) was added. The mixture was cultured for further 7 days. Each test compound was added on the first day of the culture. After culturing, the amount of IgE antibody in a culture supernatant was assayed by ELISA, and the inhibitory activity of the test compound against production of an IgE antibody was calculated.
As usually defined, the IC50 is the point on the concentration scale where inhibition reaches its midpoint. The molecule `CCOc1c(OC)cc(-c2ccc(C(=O)N3CCN(CCCN4CCN(C(=O)c5ccc(-c6cc(OC)c(OCC)c(OC)c6)cc5)CC4)CC3)cc2)cc1OC` [Example 4, 1,3-Bis[4-[4-(4-ethoxy-3,5-dimethoxyphenyl)benzoyl]-1-piperazinyl]propane Dimethanesulfonate] displayed an IC50 of 400 nM.
In the case of `COc1cc(-c2ccc(C(=O)N3CCN(CCCN4CCN(C(=O)c5ccc(-c6cc(OC)c(SC)c(OC)c6)cc5)CC4)CC3)cc2)cc(OC)c1SC` [Example 3, 1,3-Bis[4-[4-(3,5-dimethoxy-4-methylthiophenyl)benzoyl]-1-piperazinyl]propane Dihydrochloride], the IC50 is 80 nM.
For `COc1cc(-c2ccc(C(=O)N3CCN(CCCN4CCN(C(=O)c5ccc(-c6cc(OC)c(OC(C)C)c(OC)c6)cc5)CC4)CC3)cc2)cc(OC)c1OC(C)C` [Example 2, 1,3-Bis [4-[4-(4-isopropoxy-3,5-dimethoxyphenyl)benzoyl]-1-piperazinyl]propane Dimethanesulfonate], half-maximal inhibition (IC50) required 200 nM.
In turn, `COc1cc(-c2ccc(C(=O)N3CCN(CCCN4CCN(C(=O)c5ccc(-c6cc(OC)c(C(C)=O)c(OC)c6)cc5)CC4)CC3)cc2)cc(OC)c1C(C)=O` [Example 5, 1,3-Bis[4-[4-(4-acetyl-3,5-dimethoxyphenyl)benzoyl]-1-piperazinyl]propane Dihydrochloride] showed an IC50 of 600 nM.
On to `CCCOc1c(OC)cc(-c2ccc(C(=O)N3CCN(CCCN4CCN(C(=O)c5ccc(-c6cc(OC)c(OCCC)c(OC)c6)cc5)CC4)CC3)cc2)cc1OC` [Example 6, 1,3-Bis[4-[4-(3,5-dimethoxy-4-propoxyphenyl)benzoyl]-1-piperazinyl]propane Dihydrochloride], for which the IC50 was determined as 300 nM.
With `COc1cc(-c2ccc(C(=O)N3CCN(CCCN4CCN(C(=O)c5ccc(-c6cc(OC)c(OC)c(OC)c6)cc5)CC4)CC3)cc2)cc(OC)c1OC` [Example 1, 1,3-Bis[4-[4-(3,4,5-trimethoxyphenyl)benzoyl]-1-piperazinyl]propane Dihydrochloride], the IC50 was 100 nM.

Test system in a further data set: not given
Test: not given
Conditions: not given
For orientation: melting point means the temperature of the solid-liquid transition. For `CCOc1c(OC)cc(-c2ccc(C(=O)N3CCN(CCCN4CCN(C(=O)c5ccc(-c6cc(OC)c(OCC)c(OC)c6)cc5)CC4)CC3)cc2)cc1OC` (as salt: methanesulfonate) [Example 4, 1,3-Bis[4-[4-(4-ethoxy-3,5-dimethoxyphenyl)benzoyl]-1-piperazinyl]propane Dimethanesulfonate], the melting point was 245 °C (dec.).
Take `COc1cc(-c2ccc(C(=O)N3CCN(CCCN4CCN(C(=O)c5ccc(-c6cc(OC)c(C(C)=O)c(OC)c6)cc5)CC4)CC3)cc2)cc(OC)c1C(C)=O` (as salt: hydrochloride) [Example 5, 1,3-Bis[4-[4-(4-acetyl-3,5-dimethoxyphenyl)benzoyl]-1-piperazinyl]propane Dihydrochloride]: the melting point was 240 °C (dec.).
In the case of `COc1cc(-c2ccc(C(=O)N3CCN(CCCN4CCN(C(=O)c5ccc(-c6cc(OC)c(OC(C)C)c(OC)c6)cc5)CC4)CC3)cc2)cc(OC)c1OC(C)C` (as salt: methanesulfonate) [Example 2, 1,3-Bis [4-[4-(4-isopropoxy-3,5-dimethoxyphenyl)benzoyl]-1-piperazinyl]propane Dimethanesulfonate], the melting point is 235.5 °C (dec.).
Regarding `CCCOc1c(OC)cc(-c2ccc(C(=O)N3CCN(CCCN4CCN(C(=O)c5ccc(-c6cc(OC)c(OCCC)c(OC)c6)cc5)CC4)CC3)cc2)cc1OC` (as salt: hydrochloride) [Example 6, 1,3-Bis[4-[4-(3,5-dimethoxy-4-propoxyphenyl)benzoyl]-1-piperazinyl]propane Dihydrochloride], the melting point was 266 °C (dec.).
